From patent publication US10059698B2, “Hesperetin aza-cinnamic acid derivatives with anti-tumor activities and a method of preparing the same” (Shaanxi University of Science and Technology, priority 2016, dated 2018)

What was measured:
[1] = system: nonismall cell lung cancer cells (A549); test: tumor cell proliferation inhibition test (MTT), A549; type: cell-based; conditions: Homo sapiens, 48 hours
Text: (§1) The compounds of the present invention were subjected to tumor cell proliferation inhibition test, and the conventional MTT method was used as the test method.
(§2) Cell lines selected are nonismall cell lung cancer cells (A549), human hepatocellular carcinoma cells (SMMC-7721), human glioma cells (U251), human gastric adenocarcinoma cells (SGC-7901), and human breast cancer cells (MCF-7). The culture medium was DMEM+15% NBS+double antibody.
(§3) Preparation of the sample solutions: compounds were dissolved in DMSO (Merck), and PBS (−) was add to 100 μL of the solution or homogeneous suspension. The solution or suspension was diluted with DMSO and PBS(−) to final concentrations of 0.1, 1, 10, 20, 40, 60, 80, 100 μmol/L.
(§4) Anti-tumor agent cytarabine (Ara-C) was used as control and was prepared in the same way as the compounds.
(§5) Cell culture: adherent growth Tumor cells were cultured in 1640 medium containing 10% inactivated neonatal bovine serum and penicillin, streptomycin (1 million U/L), placed in carbon dioxide incubator at 37° C., 5% CO2, and saturated humidity. Cells were treated serially passaged 2-3 times. The first culture was washed with PBS 2 times, and digested with trypsin. Fresh culture medium was added evenly, cells were adjusted to a appropriate concentration and transferred into a new culture flask. Cell in an exponential phase were chosen for the tests.
(§6) Experimental Principle: Living cells mitochondria in the dehydrogenase can reduce yellow MTT to water-insoluble blue-violet product MT (MTT formazan), deposited in the cells. The amount of production is proportional to the number of living cells. […] DMSO can dissolve blue violet crystals, and the color depth is proportional to the amount contained, so the absorbance measured by the microplate reader can reflect the cell viability.
(§7) Methods: The exponential phase cells were digested and counted and seeded in 96-well plates at a density of 2×10^4/mL at 100 μl per well. After 24 hours of incubation, the cells to be tested were treated with 0.1, 1, 10, 20, 40, 60, 80, 100 μmol/L of the compounds. Each experimental group had 5 wells in each concentration, and the culture medium containing 0.4% DMSO was used as control. After 48 hours, the supernatant was discarded, and 100 μl of MTT ((2-(4,5-dimethyl-2-thiazolyl)-3,5-diphenyl-2H-[…]) (1 mg/mL) was added to each well. After another 4 hours, the supernatant was discarded, and 100 μL of DMSO was added to each well. After mixing, the absorbance was measured at 570 nm using a microplate reader. An IC50 calculation software was used to determine the half inhibitory concentration (IC50).

[2] = system: human gastric adenocarcinoma cells (SGC-7901); test: tumor cell proliferation inhibition test (MTT), SGC-7901; type: cell-based; conditions: SGC-7901 cells, 48 hours
Text: as §1, §2, §3, §4, §5, §6, §7

[3] = system: human glioma cells (U251); test: tumor cell proliferation inhibition test (MTT), U251; type: cell-based; conditions: U-251, 48 hours
Text: as §1, §2, §3, §4, §5, §6, §7

[4] = system: human breast cancer cells (MCF-7); test: tumor cell proliferation inhibition test (MTT), MCF-7; type: cell-based; conditions: MCF7, MCF-7 cells, 48 hours
Text: as §1, §2, §3, §4, §5, §6, §7

[5] = system: human hepatocellular carcinoma cells (SMMC-7721); test: tumor cell proliferation inhibition test (MTT), SMMC-7721; type: cell-based; conditions: SMMC-7721 cells, 48 hours
Text: as §1, §2, §3, §4, §5, §6, §7

[6] = system: tumor cells (A549, SMMC-7721, U251, SGC-7901, MCF-7); test: tumor cell proliferation inhibition test (MTT), all cell lines tested; type: cell-based, human; conditions: in some cell lines tested
Text: as §1, §2, §3, §4, §5, §6, §7

[7] = system: HepG2 cells; conditions: in vitro; time-dependent and dose-effect relationship; cited from earlier work
[8] = rats; cited from earlier work

| IC50 [1] [µM] | IC50 [2] [µM] | IC50 [3] [µM] | IC50 [4] [µM] | IC50 [5] [µM] | Structure (SMILES) | activities compared with Ara-C [6] | inhibition of proliferation of HepG2 cells [7] | toxicity of doxorubicin [8] |
| --- | --- | --- | --- | --- | --- | --- | --- | --- |
| > 100 | > 100 | > 100 | > 100 | > 100 | COc1ccc([C@@H]2CC(=O)c3c(O)cc(OC(=O)/C=C/c4ccc([N+](=O)[O-])cn4)cc3O2)cc1OC [Compound K, (S,E) 2-(3,4-dimethoxyphenyl)-5-hydroxy-4-oxochroman-7-yl 3-(5-nitropyridin-2-yl) acrylate acid ester] | – | – | – |
| > 100 | > 100 | > 100 | 92.1 ± 2.73 | 23.7 ± 1.5 | COc1ccc([C@@H]2CC(=O)c3c(O)cc(OC(=O)/C=C/c4ccc(O)c(OC)n4)cc3O2)cc1O [Compound F, (S,E) 5-hydroxy-2-(3-hydroxy-4-methoxyphenyl)-4-oxochroman-7-yl 3-(5-hydroxy-6-methoxypyridin-2-yl) acrylate acid ester] | equal or better activities than Ara-C | – | – |
| > 100 | 16.1 ± 0.47 | 63.9 ± 2.28 | > 100 | 63.9 ± 2.28 | COc1ccc([C@@H]2CC(=O)c3c(O)cc(OC(=O)/C=C/c4ccc(Cl)cn4)cc3O2)cc1OC [Compound I, (S,E) 2-(3,4-dimethoxyphenyl)-5-hydroxy-4-oxochroman-7-yl 3-(5-chloropyridin-2-yl) acrylate acid ester] | equal or better activities than Ara-C | – | – |
| > 100 | 63.9 ± 2.28 | > 100 | > 100 | 47.88 ± 0.4 | COc1ccc([C@@H]2CC(=O)c3c(O)cc(OC(=O)/C=C/c4ccc(C)cn4)cc3O2)cc1OC [Compound H, (S,E) 2-(3,4-dimethoxyphenyl)-5-hydroxy-4-oxochroman-7-yl 3-(5-methylpyridin-2-yl) acrylate acid ester] | equal or better activities than Ara-C | – | – |
| 69.13 ± 0.36 | > 100 | 28.5 ± 0.45 | > 100 | > 100 | COc1ccc([C@@H]2CC(=O)c3c(O)cc(OC(=O)/C=C/c4ccccn4)cc3O2)cc1OC [Compound G, (S,E) 2-(3,4-dimethoxyphenyl)-5-hydroxy-4-oxochroman-7-yl 3-(pyridin-2-yl) acrylate acid ester] | equal or better activities than Ara-C | – | – |
| > 100 | > 100 | > 100 | > 100 | > 100 | COc1ccc([C@@H]2CC(=O)c3c(O)cc(OC(=O)/C=C/c4ccc([N+](=O)[O-])cn4)cc3O2)cc1O [Compound E, (S,E) 5-hydroxy-2-(3-hydroxy-4-methoxyphenyl)-4-oxochroman-7-yl 3-(5-nitropyridin-2-yl) acrylate acid ester] | – | – | – |
| 46.3 ± 0.47 | > 100 | 25.1 ± 0.47 | 16.1 ± 0.47 | 84.31 ± 0.47 | COc1ccc([C@@H]2CC(=O)c3c(O)cc(OC(=O)/C=C/c4ccc(F)cn4)cc3O2)cc1OC [Compound J, (S,E) 2-(3,4-dimethoxyphenyl)-5-hydroxy-4-oxochroman-7-yl 3-(5-fluoropyridin-2-yl) acrylate acid ester] | equal or better activities than Ara-C | – | – |
| > 100 | 63.87 ± 0.4 | > 100 | 18.6 ± 1.01 | 33.3 ± 2.08 | COc1ccc([C@@H]2CC(=O)c3c(O)cc(OC(=O)/C=C/c4ccc(O)c(OC)n4)cc3O2)cc1OC [Compound M, (S,E) 2-(3,4-dimethoxyphenyl)-5-hydroxy-4-oxochroman-7-yl 3-(5-hydroxy-6-methoxypyridin-2-yl) acrylate acid ester] | equal or better activities than Ara-C | – | – |

More lines, now with the values behind:

| Structure (SMILES) | IC50 [1] [µM] | IC50 [2] [µM] | IC50 [3] [µM] | IC50 [4] [µM] | IC50 [5] [µM] | activities compared with Ara-C [6] | inhibition of proliferation of HepG2 cells [7] | toxicity of doxorubicin [8] |
| --- | --- | --- | --- | --- | --- | --- | --- | --- |
| COc1ccc([C@@H]2CC(=O)c3c(O)cc(OC(=O)/C=C/c4ccccn4)cc3O2)cc1O [Compound A, (S,E) 5-hydroxy-2-(3-hydroxy-4-methoxyphenyl)-4-oxochroman-7-yl 3-(pyridin-2-yl) acrylic acid ester] | 35.1 ± 0.47 | 89.9 ± 1.02 | > 100 | 43.1 ± 1.31 | 46.8 ± 1.56 | equal or better activities than Ara-C | – | – |
| Nc1ccn([C@@H]2O[C@H](CO)[C@@H](O)[C@@H]2O)c(=O)n1 [Ara-C, cytarabine, reference compound] | > 100 | 67.6 ± 3.73 | 19.2 ± 0.39 | 76.9 ± 1.78 | 18.3 ± 0.64 | – | – | – |
| COc1ccc([C@@H]2CC(=O)c3c(O)cc(OC(=O)/C=C/c4ccc(C)cn4)cc3O2)cc1O [Compound B, (S,E) 5-hydroxy-2-(3-hydroxy-4-methoxyphenyl)-4-oxochroman-7-yl 3-(5-methylpyridin-2-yl) acrylate acid ester] | > 100 | > 100 | 46 ± 0.21 | > 100 | 67.1 ± 1.74 | equal or better activities than Ara-C | – | – |
| COc1ccc([C@@H]2CC(=O)c3c(O)cc(O)cc3O2)cc1O [hesperetin, Hesperetin] | – | – | – | – | – | – | can inhibit the proliferation of HepG2 cells in vitro | could reduce the toxicity of doxorubicin in rats |
| COc1ccc([C@@H]2CC(=O)c3c(O)cc(OC(=O)/C=C/c4ccc(F)cn4)cc3O2)cc1O [Compound D, (S,E) 5-hydroxy-2-(3-hydroxy-4-methoxyphenyl)-4-oxochroman-7-yl 3-(5-fluoropyridin-2-yl) acrylate acid ester] | 7.28 ± 0.13 | 67.13 ± 0.28 | 57.13 ± 0.47 | 23.7 ± 1.5 | 12.8 ± 1.37 | equal or better activities than Ara-C | – | – |
| COc1ccc([C@@H]2CC(=O)c3c(O)cc(OC(=O)/C=C/c4ccc(Cl)cn4)cc3O2)cc1O [Compound C, (S,E) 5-hydroxy-2-(3-hydroxy-4-methoxyphenyl)-4-oxochroman-7-yl 3-(5-chloropyridin-2-yl) acrylate acid ester] | 5.54 ± 0.39 | 18.4 ± 1.71 | 11.7 ± 0.45 | 22.7 ± 0.32 | 86.9 ± 2.28 | equal or better activities than Ara-C | – | – |
